PubChem BioAssay (NCI)
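Exposure lasted 48 hours, with cells grown in 96-well plates and compounds tested at five concentrations. GI50: concentration for 50% inhibition of growth. TGI denotes the concentration required for complete inhibition of growth.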

What was measured:
Assay in all cases: growth of human tumour cells (NCI), 48 h
[1] = system: SF-295 CNS
[2] = system: OVCAR-4 ovarian
[3] = system: NCI-H460 lung
[4] = system: UO-31 renal
[5] = system: HCT-116 colon
[6] = system: SR leukemia
[7] = system: NCI-H226 lung
[8] = system: SF-539 CNS
[9] = system: 786-0 renal
[10] = system: UACC-257 melanoma

SMILES	GI50 [1]	TGI [1]	GI50 [2]	TGI [2]	GI50 [3]	TGI [3]	GI50 [4]	TGI [4]	GI50 [5]	TGI [5]	GI50 [6]	TGI [6]	GI50 [7]	TGI [7]	GI50 [8]	TGI [8]	GI50 [9]	TGI [9]	TGI [10]	GI50 [10]
COc1ccc(-n2cc(-c3ccc(OC)c(OC)c3)[nH]c2=S)cc1Cl	41 µM	> 100 µM	> 100 µM	> 100 µM	> 100 µM	> 100 µM	> 100 µM	> 100 µM	> 100 µM	> 100 µM	> 100 µM	> 100 µM	> 100 µM	> 100 µM	39.4 µM	> 100 µM	52.3 µM	> 100 µM		
O=C1c2ccccc2-c2c1c1cc3c(cc1c(=O)n2CCCCl)OCO3	16.2 µM	46.8 µM	> 100 µM	> 100 µM	97.1 µM	> 100 µM	> 100 µM	> 100 µM	17.7 µM	90.1 µM					51.4 µM	> 100 µM	18.4 µM	45.7 µM		
CN1CCN(C(=S)N(C)C(=O)c2ccc(Cl)cc2)CC1		> 100 µM		> 100 µM		> 100 µM		> 100 µM						> 100 µM				> 100 µM	> 100 µM	
c1ccc(-c2nnc(-c3nn(-c4ccccc4)c4nc5ccccc5nc34)o2)cc1		> 100 µM		> 100 µM				> 100 µM		> 100 µM				99.5 µM		> 100 µM		> 100 µM	> 100 µM	
O=C1NC(=O)C2C(=O)NC(=O)C1C2(c1ccccc1)c1ccc(Cl)cc1 (configuration not stated)		> 100 µM		> 100 µM		> 100 µM		> 100 µM						> 100 µM		> 100 µM		> 100 µM	> 100 µM	
C[Si](C)(C)c1ccc(CC2(Cc3ccc([Si](C)(C)C)cc3)CCNC2)cc1		6.86 µM		4.52 µM		3.73 µM		5.9 µM		3.17 µM				3.34 µM		10.4 µM		3.38 µM	5.41 µM	
CC1=C(CCCOC(=O)NCCCl)C2=C(C)C3(CC3)[C@@](C)(O)C(=O)C2=C1	2.53 µM	7.33 µM	2.7 µM	> 100 µM	2.42 µM	13.6 µM	2.02 µM	5.76 µM	2.96 µM	> 100 µM			2.4 µM	6.33 µM	2.04 µM	5.5 µM	2.71 µM	8.16 µM	> 100 µM	3.91 µM
Clc1ccc(Cc2nc3cc4ccccc4cc3[nH]2)cc1	3.08 µM	30 µM	22.7 µM	> 100 µM	2.22 µM	> 100 µM	54.1 µM	> 100 µM	5.06 µM	20.6 µM			30.1 µM	> 100 µM	3.08 µM	81.1 µM	8.99 µM	43.2 µM	> 100 µM	> 100 µM
CCOC(=O)CCCO		> 100 µM				> 100 µM		> 100 µM				> 100 µM				> 100 µM		> 100 µM	> 100 µM	
COc1cccc(-c2nc(-c3cnccn3)n(Cc3ccccc3)n2)c1		> 100 µM		> 100 µM		> 100 µM		> 100 µM		> 100 µM		> 100 µM				> 100 µM		> 100 µM	> 100 µM	
Cc1c(N2C(=O)/C(=C\c3ccccc3O)N=C2c2ccccc2)c(=O)n(-c2ccccc2)n1C	26.2 µM	78.6 µM	> 100 µM	> 100 µM	> 100 µM	> 100 µM	> 100 µM	> 100 µM	51.6 µM	> 100 µM			63.7 µM	> 100 µM	33.5 µM	> 100 µM	29.9 µM	> 100 µM	> 100 µM	> 100 µM
O=C(Nc1ccccc1[N+](=O)[O-])c1ccccc1		> 100 µM		> 100 µM		> 100 µM		> 100 µM		> 100 µM				> 100 µM		> 100 µM		> 100 µM	> 100 µM	
COc1ccc(/C=C(/C(=O)O)c2cc(OC)c(OC)c(OC)c2)cc1				> 100 µM		> 100 µM		> 100 µM		> 100 µM		> 100 µM		> 100 µM		51.2 µM		> 100 µM	> 100 µM	
O=C(/C=C/c1cccs1)c1ccc(Cl)cc1		> 100 µM				> 100 µM		> 100 µM		> 100 µM		71.1 µM		> 100 µM		> 100 µM		> 100 µM	> 100 µM	
Clc1cccc(NC=Nc2ccc(-c3nc4ccccc4s3)cc2)c1	17.4 µM	> 50 µM			9.44 µM	23.3 µM	13.8 µM	33.6 µM	11 µM	24.1 µM	9.55 µM	21.1 µM			17.8 µM	34.1 µM	10.6 µM	18.6 µM	36.6 µM	16.1 µM
NC1(CCCCCCCCCCC(=O)O)CNCCNCCNCCNC1		> 100 µM		> 100 µM		86.4 µM		> 100 µM		81.2 µM		67.2 µM				> 100 µM		> 100 µM	> 100 µM	
COc1cccc(-c2nn(-c3ccccc3)cc2-c2ccnc(NCCCNS(=O)(=O)c3cccc(F)c3)c2)c1	2.94 µM	> 100 µM	3.28 µM	> 100 µM	4.93 µM	> 100 µM	1.87 µM	> 100 µM	3.67 µM	> 100 µM	2.13 µM	7.22 µM	6.75 µM	> 100 µM			4.01 µM	> 100 µM	39.3 µM	5.12 µM
C[C@]12CCC(=O)C=C1CC[C@@H]1C2CC[C@]2(C)NC(=O)C(C#N)CC12 (some centres not stated)		> 100 µM		> 100 µM		> 100 µM		> 100 µM		> 100 µM				> 100 µM		> 100 µM		> 100 µM	> 100 µM	
O=C(N/N=C/c1cccc(O)c1O)N/N=C/c1cccc(O)c1O		46.2 µM		> 100 µM		> 100 µM		36.8 µM		39.8 µM				59.5 µM		36.2 µM		> 100 µM	62.9 µM	
